According to ChEMBL document CHEMBL5308504, “Tm Shift (DSF) assay results for EUbOPEN Chemogenomics Library” (2023):
“And” between values parts separate entries of the source, which are not always exact repeats. Identical values can stand only once.

Legend:
[1] = biological target: T1, Peregrin (Homo sapiens) (UniProt P55201); settings: Compound concentration 20.0 uM, Protein concentration 2.0 uM, Result type QC Liability
T1 sequence (whole entry): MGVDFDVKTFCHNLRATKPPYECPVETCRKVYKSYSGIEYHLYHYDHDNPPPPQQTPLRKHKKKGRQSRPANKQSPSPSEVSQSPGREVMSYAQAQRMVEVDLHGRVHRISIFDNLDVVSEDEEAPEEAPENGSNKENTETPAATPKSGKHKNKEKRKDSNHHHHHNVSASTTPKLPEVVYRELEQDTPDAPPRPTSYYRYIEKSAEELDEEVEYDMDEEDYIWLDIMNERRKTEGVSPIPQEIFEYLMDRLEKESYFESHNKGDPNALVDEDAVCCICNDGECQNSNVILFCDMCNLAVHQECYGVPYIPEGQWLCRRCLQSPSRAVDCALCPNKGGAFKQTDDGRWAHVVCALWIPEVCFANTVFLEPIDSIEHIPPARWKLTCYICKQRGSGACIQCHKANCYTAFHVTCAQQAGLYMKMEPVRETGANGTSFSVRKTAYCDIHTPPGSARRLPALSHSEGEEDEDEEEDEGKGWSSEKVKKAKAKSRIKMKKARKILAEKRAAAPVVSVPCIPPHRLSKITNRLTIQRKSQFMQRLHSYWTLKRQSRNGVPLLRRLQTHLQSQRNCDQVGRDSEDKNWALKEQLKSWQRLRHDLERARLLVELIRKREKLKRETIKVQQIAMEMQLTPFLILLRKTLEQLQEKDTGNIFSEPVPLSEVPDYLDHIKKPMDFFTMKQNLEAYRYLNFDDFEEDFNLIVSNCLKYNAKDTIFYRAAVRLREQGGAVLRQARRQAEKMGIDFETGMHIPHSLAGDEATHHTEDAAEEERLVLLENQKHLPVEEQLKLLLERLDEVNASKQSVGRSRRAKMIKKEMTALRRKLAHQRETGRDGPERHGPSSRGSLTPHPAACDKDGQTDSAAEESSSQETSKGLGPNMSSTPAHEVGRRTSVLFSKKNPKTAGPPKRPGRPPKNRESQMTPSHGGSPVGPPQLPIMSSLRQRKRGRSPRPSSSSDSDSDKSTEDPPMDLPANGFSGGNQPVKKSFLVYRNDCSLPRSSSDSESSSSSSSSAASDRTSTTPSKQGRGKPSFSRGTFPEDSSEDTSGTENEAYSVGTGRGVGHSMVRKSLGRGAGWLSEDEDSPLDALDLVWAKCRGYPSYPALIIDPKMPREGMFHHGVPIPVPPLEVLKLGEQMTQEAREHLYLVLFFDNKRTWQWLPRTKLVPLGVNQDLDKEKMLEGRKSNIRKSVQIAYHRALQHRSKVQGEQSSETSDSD

[2] = biological target: Fibroblast growth factor receptor 3 (Homo sapiens) (UniProt P22607); settings: Compound concentration 20.0 uM, Protein concentration 2.0 uM, Result type QC Liability
Chain of Fibroblast growth factor receptor 3 (Homo sapiens) (P22607 23-806 limits assumed): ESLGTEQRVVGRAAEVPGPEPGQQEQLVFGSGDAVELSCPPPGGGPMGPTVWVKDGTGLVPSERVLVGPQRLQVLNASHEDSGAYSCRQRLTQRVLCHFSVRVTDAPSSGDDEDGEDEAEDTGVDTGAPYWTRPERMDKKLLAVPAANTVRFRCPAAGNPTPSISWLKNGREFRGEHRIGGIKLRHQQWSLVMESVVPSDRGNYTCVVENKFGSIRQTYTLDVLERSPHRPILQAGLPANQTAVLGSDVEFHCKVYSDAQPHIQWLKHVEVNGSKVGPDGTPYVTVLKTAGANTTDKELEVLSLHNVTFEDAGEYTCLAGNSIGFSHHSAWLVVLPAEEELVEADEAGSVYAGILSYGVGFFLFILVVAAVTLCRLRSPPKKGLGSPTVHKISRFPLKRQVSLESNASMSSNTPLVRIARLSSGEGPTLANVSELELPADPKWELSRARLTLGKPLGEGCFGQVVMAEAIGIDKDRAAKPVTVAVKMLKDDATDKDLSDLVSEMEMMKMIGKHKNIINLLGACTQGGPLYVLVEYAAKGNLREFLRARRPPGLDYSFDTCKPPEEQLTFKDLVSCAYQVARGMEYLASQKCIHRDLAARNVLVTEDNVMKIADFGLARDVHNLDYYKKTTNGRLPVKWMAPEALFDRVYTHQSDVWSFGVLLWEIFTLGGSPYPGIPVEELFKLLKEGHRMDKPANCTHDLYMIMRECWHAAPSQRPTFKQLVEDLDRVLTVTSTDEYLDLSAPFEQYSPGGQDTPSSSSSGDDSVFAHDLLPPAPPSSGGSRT
Description: Thermal Shift Assay. Domain: start/stop: P449-E759

SMILES | ΔTm [1] | ΔTm [2] | ΔTm ([1]; tested as the 2H-labelled form) | ΔTm ([2]; tested as the 2H-labelled form)
COc1c(OCCCN2CCOCC2)ccc2c1N=C(NC(=O)c1cnc(N)nc1)N1CCN=C21 | -0.93 °C | 0.63 °C | – | –
Cc1cc(OC2CCS(=O)(=O)CC2)cc(C)c1-c1cccc(COc2ccc(C(=O)O)c(F)c2)c1 | -2.62 °C | 1.28 °C | – | –
N#CN1CC[C@@H](C(=O)Nc2nc3c(s2)CN(C(=O)CN=[N+]=[N-])CC3)C1 | -1.31 °C | 0.98 °C | – | –
O=C(O)Cc1cc(I)c(Oc2ccc(O)c(I)c2)c(I)c1 | -2.62 °C | -0.28 °C | – | –
CC(C)Nc1ncnc2cc(OCc3cccc([S@@](C)(=N)=O)c3)c(Br)cc12 | -2.23 °C | 1.64 °C | – | –
COc1ccc(-c2c(-c3ccccc3)oc3ncnc(O[C@H](C)CCCCC(=O)O)c23)cc1 | -6.64 °C | -0.48 °C | – | –
CN(C)c1ncc2cc(-c3ccc(-c4ncccc4F)cc3Cl)c(=O)n(C[C@H]3OC[C@H](N)CO3)c2n1 | -1.55 °C | -0.14 °C | – | –
COCCCS(=O)(=O)c1cc(C)c(-c2ccc(F)c3c2CC[C@H]3Oc2ccc3c(c2)OC[C@H]3CC(=O)O)c(C)c1 | -4.61 °C | 0.81 °C | – | –
Cc1cc2c(ncn2C2(C)CN(C(=O)c3ccn(CC4CCN([C@H]5C=CCCCC5)CC4)c3)C2)c(N)n1 | -0.47 °C | 0.4 °C | – | –
C=CC(=O)Nc1cc(-c2nn(C3CCC(N4CCN(C(C)=O)CC4)CC3)c3ncnc(N)c23)ccc1Oc1ccccc1 (centres undefined) | -1.27 °C | 1.74 °C | – | –
COc1cc(C(N)=O)nc(-c2cccc(C#C[C@]3(O)CCN(C)C3=O)c2)c1 | -1.73 °C | 0.48 °C | – | –
O=c1cc(C2CCNCC2)n2nc3cccc(Cl)c3c2[nH]1 | -1.18 °C | 0.45 °C | – | –
CNC(=O)c1nnc(NC(=O)C2CC2)cc1Nc1cccc(-c2ncn(C)n2)c1OC | – | – | -1.46 °C | 1.05 °C
CN(C)C(=O)Cn1cc(-c2ccc(-c3cncc4ccccc34)cc2)cn1 | -2.52 °C | 0.29 °C | – | –
COc1ccccc1[C@@H]1CNCCC12CCN(C(=O)[C@](OC)(c1ccccc1)C(F)(F)F)CC2 | -1.57 °C | 0.45 °C | – | –
Cc1ccc2c(NS(=O)(=O)c3ccccc3Cl)cccc2c1Oc1ncccc1-c1ccnc(N[C@H]2CCCNC2)n1 | -3.81 °C | 0.02 °C | – | –
CC[C@@H](C(=O)OC)n1c(=O)c2ccccc2n(Cc2cn(C)c3cccc(C)c23)c1=O | -3.31 °C | 1.21 °C | – | –
CCc1ccccc1C(=O)Nc1n[nH]c2c(C)c(F)c(C3C(C#N)=C(C)N(C)C(C)=C3C#N)cc12 | -1.74 °C | 2.59 °C | – | –
COc1cc(-c2cc3ncccc3c(OC[C@H]3CNC(=O)C3)n2)cc(OC)c1OC1CCOCC1 | -1.09 °C | 1.16 °C | – | –
N=C(N)NCCC[C@H](NC(=O)CC1(CC(=O)N2CCN(C3c4ccccc4NC(=O)c4ccccc43)CC2)CCCC1)C(=O)NCCn1c(=O)n(-c2ccccc2)n(-c2ccccc2)c1=O (some centres undefined) | -2.29 °C | -5.62 °C | – | –
FC(F)(F)c1ccc(CNc2ccc(Cc3c[nH]c4ncc(Cl)cc34)cn2)cn1 | -0.43 °C | 3.63 °C | – | –
CN1CCN(C(=O)c2ccc(N(C)c3ncc(C(F)(F)F)c(N[C@@H]4CCC[C@@H]4C(N)=O)n3)cc2)CC1 | -2.51 °C | 0.46 °C | – | –
COc1cc(C(N)=O)ccc1Nc1ncc2c(n1)N(CCC(C)C)[C@H](C)C(=O)N2C | 1.82 °C | 1.76 °C | – | –
CC(=O)O[C@H]1C(=O)[C@@]2(C)[C@H]([C@H](OC(=O)c3ccccc3)[C@]3(O)C[C@H](OC(=O)[C@H](O)[C@@H](NC(=O)c4ccccc4)c4ccccc4)C(C)=C1C3(C)C)[C@]1(OC(C)=O)CO[C@@H]1C[C@@H]2O | -2.68 °C | 0.44 °C | – | –
O=C1CCCc2[nH]c(-c3ccnc(NCC4CC4)c3)c(Nc3ccccc3)c21 | -3.57 °C | 0.77 °C | – | –
COc1ccc(Br)cc1S(=O)(=O)NC(=O)/C=C/c1cc(Cl)ccc1Cc1ccc2ccccc2c1 | -10.6 °C | 0.7 °C | – | –

SMILES | ΔTm [1] | ΔTm [2] | ΔTm ([1]; tested as the 2H-labelled form) | ΔTm ([2]; tested as the 2H-labelled form)
CC(=O)c1ccc2c(c1)/C(=C(/NC1CCN(C)CC1)c1ccc3c(c1)OCO3)C(=O)N2 | -1.44 °C | 0.39 °C | – | –
CN1CCN(c2ccc(-n3cc(-c4ccncc4OCC4CCNCC4)cn3)cc2)CC1 | -0.97 °C | 1.33 °C | – | –
COc1cc(-c2nn([C@H]3CC[C@H](N4CCN(C(C)=O)CC4)CC3)c3ncnc(N)c23)ccc1NC(=O)c1cc2ccccc2n1C | -2.71 °C | 0.83 °C | – | –
Cn1c(C2(NC(=O)c3ccc4c(C5CCCC5)c(-c5ncc(Br)cn5)n(C)c4c3)CCC2)nc2ccc(/C=C/C(=O)O)cc21 | -4.81 °C and -4.1 °C | -0.02 °C and -0.48 °C | – | –
O=C(O)c1cc(-c2ccccc2)ccc1O | -0.36 °C | 0.62 °C | – | –
CC(C)N(C(=O)C1CCOCC1)c1cc(F)c(Oc2ncc(Cn3nccn3)cc2C(F)(F)F)cc1C(=O)O | -3.32 °C | 0.39 °C | – | –
Nc1ncnc2c1c(COc1cccc(Cl)c1)nn2C1CCOCC1 | -1.86 °C | 1.63 °C | – | –
CCc1cnn2c(NCc3ccc[n+]([O-])c3)cc(N3CCCCC3CCO)nc12 (centres undefined) | -1.7 °C | 1.49 °C | – | –
O=C(Nc1ccc(C(O)(C(F)(F)F)C(F)(F)F)cc1)c1ccc(C(F)(F)F)cc1 | 0.72 °C | 2.93 °C | – | –
Cc1c(-c2c(F)cc(C(N)=O)c3[nH]c4c(c23)CC[C@H](C(C)(C)O)C4)cccc1-n1c(=O)c2cccc(F)c2n(C)c1=O | -3.49 °C | -3.27 °C | – | –
CN(C)[C@H]1CCN(c2cc(C(F)(F)F)c(C#N)c(Nc3cccc(CCC(=O)O)c3)n2)C1 | -2.19 °C | 1 °C | – | –
CS(=O)(=O)CCNCc1ccc(-c2ccc3ncnc(Nc4ccc(OCc5cccc(F)c5)c(Cl)c4)c3c2)o1 | -1.41 °C | 0.79 °C | – | –
CC(C)Oc1ccc(Cc2ccc(NC3=NCCN3)cc2)cc1 | -3.24 °C | 0.39 °C | – | –
Cn1cc(Nc2nccc(N3CC4CCC(C3)N4C(=O)[C@@H]3CC3(F)F)n2)cn1 | -0.71 °C | 2.58 °C | – | –
N[C@@H](CC(=O)O)Cn1nnc(-c2ccc(Oc3ncc(Cl)cc3F)cc2)n1 | -3.09 °C | 0.43 °C | – | –
NC(=O)c1sc2nc(N3CCC(NC[C@H](O)c4ccccn4)CC3)cc(C(F)(F)F)c2c1N | -0.86 °C | 1.99 °C | – | –
CN1C(=O)Cc2ccc(-c3ccc(C[C@@H](C#N)NC(=O)[C@@H]4N[C@H]5CC[C@@H]4C5)c(F)c3)cc21 | 1.91 °C | 0.66 °C | – | –
Clc1cccc(Nc2nccc(NCCCN3CCOCC3)n2)c1 | -1.42 °C | 1.15 °C | – | –
CCCc1c(OCCCOc2ccc(OCC(=O)O)cc2)ccc(C(C)=O)c1O | -1.78 °C | 0.12 °C | – | –
CCOc1cc(CC(=O)N[C@@H](CC(C)C)c2ccccc2N2CCCCC2)ccc1C(=O)O | -3.67 °C | 0.18 °C | – | –
Cc1cc(=O)n(C)c2cc(N3C(=O)CC[C@H](NS(=O)(=O)CC(C)C)[C@H]3c3ccc(Cl)cc3)ccc12 | -0.8 °C | 0.86 °C | – | –
CC1CCN(C(=O)[C@@H](CCn2cccc2C#N)NS(=O)(=O)c2cccc3[nH]ccc23)CC1 | -3.16 °C | 0.36 °C | – | –
CCn1c(CNC(=O)c2nc(Cl)cnc2N)[n+](CC)c2ccc(C(=O)N(C)CCN(C)C)cc21 | -1.87 °C | 0.5 °C | – | –
COc1ccccc1S(=O)(=O)Nc1ccc2c(c1)CN(C)C(=O)N2 | 1.73 °C | 0.61 °C | – | –
Cc1cc(C)nc(Nc2ncc(C(=O)NCCc3c(C)[nH]c4ccccc34)cn2)c1 | -2.14 °C | 0.85 °C | – | –
O=c1[nH]c(CS[C@H]2CC[C@H](O)CC2)nc2cc(OCC3CC3)cc(F)c12 | -0.45 °C | 0.65 °C | – | –
